Test results: ChEMBL document CHEMBL1671692, “Intravenous voriconazole after toxic oral administration” (Antimicrob Agents Chemother, 2010)

Tests used:
Assay type in all cases: organism-based
[1] = test system: Homo sapiens; experiment: Toxicity in sphenoid sinus human patient assessed as occurrence of epidermolysis bullosa acquisita treatment increased upto 300 mg, po QID by biopsy hostopathological analysis; conditions: in vivo
[2] = test system: Homo sapiens; experiment: Toxicity in sphenoid sinus human patient assessed as occurrence of superficial edema treatment increased upto 300 mg, po QID by biopsy hostopathological analysis; conditions: in vivo
[3] = test system: Homo sapiens; experiment: Toxicity in sphenoid sinus human patient assessed as recurrence of the cutaneous reaction treatment increased upto 500 mg, iv BID for 8 weeks; conditions: in vivo, 1344 h
[4] = test system: Homo sapiens; experiment: Toxicity in sphenoid sinus human patient assessed as occurrence of cutaneous reaction with red striae treatment increased upto 300 mg, po QID by biopsy hostopathological analysis; conditions: in vivo
[5] = test system: Homo sapiens; experiment: Toxicity in sphenoid sinus human patient assessed as desensitization to several types of adverse reactions at 500 mg, iv BID after 8 weeks; conditions: in vivo, 1344 h
[6] = test system: Homo sapiens; experiment: Toxicity in sphenoid sinus human patient assessed as cutaneous reaction treatment increased upto 300 mg, iv QID for 8 weeks measured after 2 weeks of treatment discontinuation; conditions: in vivo
[7] = test system: Homo sapiens; experiment: Toxicity in sphenoid sinus human patient assessed as mild elevations in liver enzyme level treatment increased upto 500 mg, iv BID for 8 weeks; conditions: in vivo, 1344 h
[8] = test system: Homo sapiens; experiment: Toxicity in sphenoid sinus human patient assessed as apoptotic or necrotizing keratinocytes treatment increased upto 300 mg, po QID; conditions: in vivo
[9] = test system: Homo sapiens; experiment: Toxicity in sphenoid sinus human patient assessed as occurrence of extended interface dermatitis with vacuolar alteration of the basilar epidermis treatment increased upto 300 mg, po QID by biopsy hostopathological analysis; conditions: in vivo
[10] = test system: Homo sapiens; experiment: Toxicity in sphenoid sinus human patient assessed as inflammatory infiltration treatment increased upto 300 mg, po QID by biopsy hostopathological analysis; conditions: in vivo
[11] = test system: Homo sapiens; experiment: Toxicity in sphenoid sinus human patient assessed as occurrence of pseudoporphyria treatment increased upto 300 mg, po QID by biopsy hostopathological analysis; conditions: in vivo
[12] = test system: Homo sapiens; experiment: Toxicity in sphenoid sinus human patient assessed as increase in liver enzyme level treatment increased upto 300 mg, iv QID relative to control; conditions: in vivo
[13] = test system: Homo sapiens; experiment: Toxicity in sphenoid sinus human patient assessed as increase in liver enzyme level treatment increased upto 300 mg, iv QID for 8 weeks measured after 2 weeks of treatment discontinuation; conditions: in vivo
[14] = test system: Homo sapiens; experiment: Toxicity in sphenoid sinus human patient assessed as occurrence of erythema multiforme treatment increased upto 300 mg, po QID by biopsy hostopathological analysis; conditions: in vivo

With `C[C@@H](c1ncncc1F)[C@](O)(Cn1cncn1)c1ccc(F)cc1F` [VORICONAZOLE] the Activity [1] was “Toxic”, the Activity [2] was “Toxic” and the Activity [3] was “Non-toxic”. The Activity [4] was “Toxic”, the Activity [5] was “Non-toxic” and the Activity [6] was “Non-toxic”. The Activity [7] was “Toxic”, the Activity [8] was “Non-toxic” and the Activity [9] was “Toxic”. For the same compound, the Activity [10] was “Non-toxic”, the Activity [11] was “Toxic” and the Activity [12] was “Toxic”. For the same compound, the Activity [13] was “Non-toxic” and the Activity [14] was “Toxic”.
